Holding throughout (test): Camptothecin drug cellular activity test (MTS cell proliferation)
Format in all cases: cell-based, human

For one assay, the system named is BXPC-3. Conditions: read-out: Cell Viability, BXPC-3. The procedure: (§1) The cytotoxic activity of camptothecin drugs was determined by the following experimental process: Camptothecin drugs were added to cell culture media that grows human tumors cells that express A431, Fadu, Bxpc-3 (EGFR-positive cells) and U87-MG, SW620 (negative control cells). Cell survival rates were measured after the cells were cultured for 72 hours. Cell-based in vitro experiments are used to determine cell survival rate, cytotoxicity, and programmed cell death induced by the camptothecin drug of the present application.
(§2) The in vitro efficacy of the camptothecin drugs was determined by cell proliferation test. CellTiter 96® Aqueous One Solution Cell Proliferation Assay is commercially available (Promega Corp., Madison, Wis.). CellTiter 96® AQueous One Solution Cell Proliferation Assay(a) is a colorimetric method to detect the number of living cells in cell proliferation and cytotoxicity experiments. This reagent contains a novel tetrazolium compound [3-(4, 5-dimethylthiazol-2-yl)-5-(3-carboxymethoxyphenyl)-2-(4-sulfophenyl)-2H-tetrazolium, inner salt; MTS] and an electronic coupling agent (phenazine ethosulfate; PES). PES has enhanced chemical stability, which allows it to be mixed with MTS to form a stable solution. This convenient “single solution” mode is an improvement on the basis of the first generation CellTiter 96*AQueous Assay. The electronic coupling agent PMS and MTS solution used in the CellTiter 96*AQueous Assay are provided separately. MTS (Owen's reagent) is reduced by cell organisms into a colored formazan product (Illustration 1), which can be directly dissolved in the culture medium.
(§3) The conversion in all likelihood is completed under the action of NADPH or NADH produced by dehydrogenases in metabolically active cells. When testing, just add a small amount of CellTiter 96® AQueous One Solution Reagent directly to the culture plate well, incubate for 1-4 hours, and then read the absorbance value at 490 nm with a microplate reader.
(§4) The amount of formazan detected at 490 nm is directly proportional to the number of viable cells in culture. Since the formazan product of MTS is soluble in tissue culture medium, CellTiter 96® AQueous One Solution Assay has fewer steps than MTT or INT methods.
(§5) In the present application, A431, Fadu, Bxpc-3 (EGFR positive expressing cells) and U87-MG, SW620 (negative control cells) are used as the research system for in vitro drug efficacy detection. In a 96-well plate, use an appropriate cell density for plating, and after 24 hours, add camptothecin. After 24 hours, dilute the camptothecin drug with the test medium (1 uM start, 5-fold dilution, 9 concentrations, add test medium in the tenth column as a blank control), and add the diluted camptothecin drug to the corresponding cell wells. The cell wells were then shaken with a microplate shaker (model: MX100-4A) for 3 minutes at a shaking speed of 550 rpm/min. After shaking, they were placed in a carbon dioxide incubator and incubated for 3 days. After 3 days, add 20 uL MTS (Promega, G3581) to each well for 2 hours, and the microplate reader (Molecular Device, model: SpectraMAX190) reads at […]. By detecting the activity of dehydrogenase in mitochondria, the inhibitory effect of camptothecin drugs on cell proliferation was evaluated.

The next assay has as its system Fadu. As to conditions: read-out: Cell Viability, Fadu. Here is the method:
as §1, §2, §3, §4, §5

The next assay relates to SW620. As to conditions: read-out: Cell Viability, SW620. Here is the method:
as §1, §2, §3, §4, §5

For the next assay, the system named is U87-MG. As to conditions: read-out: Cell Viability, U87-MG. Here is the method: as §1, §2, §3, §4, §5
The next assay has as its system A431. As to conditions: read-out: Cell Viability, A431. The procedure: as §1, §2, §3, §4, §5
The mark [1] stands for this setting: Homo sapiens, 72 h, BXPC-3, EGFR-positive cells, 3 days incubation, MTS.
Setting [2] is: Homo sapiens, 72 h, Fadu, EGFR-positive cells, 3 days incubation, MTS.
Setting [3] is: Homo sapiens, SW-620, 72 h, SW620, negative control cells, 3 days incubation, MTS.
Setting [4] is: Homo sapiens, U-87 MG, 72 h, U87-MG, negative control cells, 3 days incubation, MTS.
The mark [5] stands for this setting: Homo sapiens, A-431, 72 h, A431, EGFR-positive cells, 3 days incubation, MTS.

Read-outs that look alike come from different tables or passages of the source.

With `CC[C@@]1(O)C(=O)OCc2c1cc1n(c2=O)Cc2c-1nc1cc(F)c(C)c3c1c2[C@@H](NC(=O)[C@H](C)O)CC3` [Compound 2], the IC50 in the assay with BXPC-3 (setting [1]) came out at 38.8 nM; in the assay on Fadu (setting [2]), 11.1 nM; with SW620 (setting [3]), 10.4 nM; in the assay on U87-MG (setting [4]), 7.4 nM; in the assay on A431 (setting [5]), 40.9 nM.
For `CC[C@@]1(O)C(=O)OCc2c1cc1n(c2=O)Cc2c-1nc1cc(F)c(C)c3c1c2[C@H](NC(=O)[C@H](O)C(F)(F)F)CC3` [Compound 12] the same measures were 1.6 nM, 0.002 nM, 0.06 nM, 0.06 nM and 15.5 nM.
Consider `CC[C@@]1(O)C(=O)OCc2c1cc1n(c2=O)Cc2c-1nc1cc(F)c(C)c3c1c2[C@H](NC(=O)[C@@H](O)C(F)(F)F)CC3` [Compound 13], for which the IC50 was 40 nM in the assay with BXPC-3 (setting [1]); 0.06 nM in the assay on Fadu (setting [2]); 1.06 nM in the assay with SW620 (setting [3]); 0.32 to 1.6 nM in the assay with U87-MG (setting [4]); 6.37 nM with A431 (setting [5]).
On to `CC[C@@]1(O)C(=O)OCc2c1cc1n(c2=O)Cc2c-1nc1cc(F)c(C)c3c1c2[C@@H](NC(=O)C1(O)CCCC1)CC3` [Compound 25], for which the IC50 in the assay on BXPC-3 (Homo sapiens, BXPC-3, 72 h) came to 15.8 nM; with Fadu (Homo sapiens, FaDu, 72 h), 41 nM; in the assay on SW620 (Homo sapiens, SW-620, 72 h), 1.5 nM; in the assay with U87-MG (Homo sapiens, U-87 MG, 72 h), 10.4 nM; in the assay on A431 (Homo sapiens, A-431, 72 h), 11.7 nM.
In the same order, the values of `CC[C@@]1(O)C(=O)OCc2c1cc1n(c2=O)Cc2c-1nc1cc(F)c(C)c3c1c2[C@@H](NC(=O)C(O)c1ccccc1)CC3` (stereo partly drawn) [Compound 28] are 81 nM, 14.2 nM, 11.9 nM, 18.3 nM and 5.12 nM.
`CC[C@@]1(O)C(=O)OCc2c1cc1n(c2=O)Cc2c-1nc1cc(F)c(C)c3c1c2[C@@H](NC(=O)[C@H](O)c1cc(F)cc(F)c1)CC3` [Compound 29]: the IC50 was 90.1 nM in the assay with BXPC-3 (Homo sapiens, BXPC-3, 72 h); 41.3 nM with Fadu (Homo sapiens, FaDu, 72 h); 2.15 nM with SW620 (Homo sapiens, SW-620, 72 h); 23.6 nM with U87-MG (Homo sapiens, U-87 MG, 72 h); 19.6 nM in the assay with A431 (Homo sapiens, A-431, 72 h).
Regarding `CC[C@@]1(O)C(=O)OCc2c1cc1n(c2=O)Cc2c-1nc1cc(F)c(C)c3c1c2[C@@H](NC(=O)[C@H](O)c1ccc2c(c1)OCO2)CC3` [Compound 30], the IC50 in the assay with BXPC-3 (Homo sapiens, BXPC-3, 72 h) was 34.2 nM; in the assay on Fadu (Homo sapiens, FaDu, 72 h), 19.2 nM; with SW620 (Homo sapiens, SW-620, 72 h), 2.25 nM; with U87-MG (Homo sapiens, U-87 MG, 72 h), 29.9 nM; with A431 (Homo sapiens, A-431, 72 h), 19.9 nM.
Regarding `CC[C@H](O)C(=O)N[C@H]1CCc2c(C)c(F)cc3nc4c(c1c23)Cn1c-4cc2c(c1=O)COC(=O)[C@]2(O)CC` [Compound 31], the IC50 worked out at 55.4 nM with BXPC-3 (Homo sapiens, BXPC-3, 72 h); 17.5 nM with Fadu (Homo sapiens, FaDu, 72 h); 17.5 nM in the assay on SW620 (Homo sapiens, SW-620, 72 h); 10.8 nM in the assay with U87-MG (Homo sapiens, U-87 MG, 72 h); 14.8 nM with A431 (Homo sapiens, A-431, 72 h).
For `CCc1c2c(nc3ccc(O)cc13)-c1cc3c(c(=O)n1C2)COC(=O)[C@]3(O)CC` [SN38, reference compound], the IC50 was 120 nM in the assay with BXPC-3 (BXPC-3, EGFR-positive cells, 3 days incubation, MTS); 42.1 nM in the assay with Fadu (Fadu, EGFR-positive cells, 3 days incubation, MTS); 3.28 nM in the assay on SW620 (SW620, negative control cells, 3 days incubation, MTS); 15.7 nM in the assay with U87-MG (U87-MG, negative control cells, 3 days incubation, MTS); 13.6 nM in the assay on A431 (A431, EGFR-positive cells, 3 days incubation, MTS).

The values above are taken from patent US20220378928A1, “A Camptothecin Drug and Its Antibody Conjugate Thereof” (priority 2020, published 2022).
